Laboratory results as given in PMC5834492, “Antimycobacterial drug discovery using Mycobacteria-infected amoebae identifies anti-infectives and new molecular targets” (Scientific Reports, 2018).
“Also recorded” adds a separate entry of the source.

How the values were obtained:
[1] = system: M. marinum in BV2 microglial cells; format: cell-based, Mycobacterium marinum
[2] = not told; cited from earlier work
[3] = system: M. marinum luxCDABE; format: cell-based, Mycobacterium marinum
[4] = system: M. bovis BCG pMV261-murC; format: cell-based, Mycobacterium bovis BCG
[5] = system: M. marinum in A. castellanii; format: cell-based, Mycobacterium marinum
[6] = system: Mtb H37Rv; set-up: method as in Sorrentino et al, 2015; details: ref Sorrentino et al, 2015; cited from earlier work
[7] = system: Mtb H37Rv in THP-1; set-up: method as in Sorrentino et al, 2015; details: ref Sorrentino et al, 2015, cited from earlier work; for Intracelullar MIC90 in THP-1: THP1 / Mtb H37Rv infection assay; for Extracellular MIC90/ Inracellular MIC90: ratio
[8] = system: D. discoideum GFP-ABD; details: for D. discoideum GFP-ABD normalised growth, control=1.00, mean: 10 µM
[9] = system: M. bovis BCG pMV261 (empty plasmid); format: cell-based, Mycobacterium bovis BCG
[10] = system: M. marinum GFP; format: cell-based, Mycobacterium marinum; details: for M. marinum GFP normalised growth, control=1.00, mean: 10 µM, antibiotic assay; for antibiotic activity in M. marinum growth assay: broth
[11] = system: BV2 cells
[12] = system: M. bovis BCG pMV261-fbpA; format: cell-based, Mycobacterium bovis BCG

Row | Structure (SMILES) | M. marinum luxCDABE normalised growth, control=1.00, mean ([3]; 10 µM) | pIC50 Shift (1) [4] | pIC50 Shift (2) [4] | pXC50(1) [4] | pXC50(2) [4] | A. castellanii / M. marinum normalised growth, control=1.00, mean ([5]; 10 µM) | Extracellular MIC90 [6] | IC50 [1] | BV2 / M. marinum normalised growth, control=1.00, mean ([1]; 10 µM) | Intracelullar MIC90 in THP-1 [7] | Extracellular MIC90/ Inracellular MIC90 [7] | D. discoideum GFP-ABD normalised growth, control=1.00, mean [8] | pXC50(1) [9] | pXC50(2) [9] | M. marinum GFP normalised growth, control=1.00, mean [10] | antibiotic activity in M. marinum growth assay [10] | Growth inhibition / Cytotoxicity assays: BV2 cells [11] | Antibiotic assays: M. marinum luxCDABE [3] | Intracellular infection assays: A. castellanii / M. marinum [5] | Intracellular infection assays: BV2 / M. marinum [1] | also measured
1 | NCC[C@H](O)C(=O)N[C@@H]1C[C@H](N)[C@@H](O[C@H]2O[C@H](CN)[C@@H](O)[C@H](O)[C@H]2O)[C@H](O)[C@H]1O[C@H]1O[C@H](CO)[C@@H](O)[C@H](N)[C@H]1O [amikacin, reference compound] | – | – | – | – | – | – | – | – | – | – | – | – | – | – | – | – | – | – | – | – | effect of amikacin on intracellular mycobacteria growth [1]: has an effect on mycobacteria growth inside BV2 cells; also recorded: exerts a significant effect on intracellular bacteria; cellular permeability [2]: low cellular permeability
2 | Cc1ccc2nc(C)c(-c3ccn(Cc4ccccc4)n3)n2c1 [GSK847920A] | 0.11 | 0.49 | 0.54 | 5.45 | 5.45 | 1.17 | 5 µM | 3.29 µM | 0.95 | 1.85 µM | 2.7 | 0.34 | 5.94 | 5.99 | 0.36 | strong antibiotic activity | – | – | – | – | –
3 | CC(C)(C)c1ccc(-c2nnc(SCC(=O)OC3CCCCC3)o2)cc1 [GW859039X] | – | – | – | – | – | – | 1.7 µM | – | – | 5.55 µM | 0.31 | – | 5.03 | 5.04 | – | strong antibiotic activity | False | 0.075 | 0.90 | 1.04 | Growth inhibition / Cytotoxicity assays: D. discoideum GFP-ABD [8]: 0.68; pIC50 Shift (1) [12]: 0.43; pIC50 Shift (2) [12]: 0.42; pXC50(1) [12]: 4.6; pXC50(2) [12]: 4.62
4 | CC(C)OC(=O)COc1ccc(-c2cnc(N(C)CCc3ccncc3)nc2)cc1 [GSK831784A] | 0.00 | 0.32 | 0.42 | 4.64 | 4.55 | 0.20 | – | 15 µM | 0.97 | – | – | 0.98 | 4.96 | 4.97 | 0.10 | strong antibiotic activity | – | – | – | – | M. marinum luxCDABE normalised growth, control = 1.00, mean ([3]; 10 µM): 0,00; Hits A. castellanii/M. marinum assay True/False ([5]; 10 µM): TRUE; hit in BV2/M. marinum assay True/False ([1]; 10 µM): FALSE
5 | COc1ccc2nc(C)cc(OCC(=O)Nc3ccccc3OC)c2c1 [GSK358607A] | – | – | – | – | – | – | 0.4 µM | – | – | 1.85 µM | 0.22 | – | – | – | – | – | False | 0.00 | 0.55 | 0.98 | Growth inhibition / Cytotoxicity assays: D. discoideum GFP-ABD [8]: 0.39
